Assay results as given in patent US20200289425A1, “CARBON DOT LIPOSOMES AND USES THEREOF” (National Taiwan University, priority 2017, published 2020).

Key:
[1] = Degradation of drugs, standing in water for 48 hrs (HPLC or ICP MS); type: physicochemical; settings: standing for 48 hrs
Procedure: In this example, the degradation of drug molecules encapsulated in the drug containing vesicles and that of free drugs were investigated. To this purpose, the drug containing vesicles of examples 1.2 or 1.3 or the free drug were placed in water, and let standing for 48 hrs, then the amounts of each drugs in the water were measured by HPLC or ICP MS.

hepatoma cells Huh7 = test: Cancer cell growth, Alamar Blue assay, Huh7; type: cell-based; settings: Huh7, 48 hr culture
Source text: (§1) Cell lines and cell culture. A549, Hela, MCF-7, Huh7, C2BBe1, BxPC-3, A375.S2, CCRF-CEM, TrampC1 and NIH 3T3 cells were obtained from the American Type Culture Collection (ATCC; Manassas, Va., USA). A549, Hela, Huh7, A375.S2, TrampC1, and NIH 3T3 cells were maintained in Dulbecco's minimal essential medium (DMEM) supplemented with 1.5 g/L sodium bicarbonate,10% fetal bovine serum (FBS), 1.0% antibiotic-antimycotic, L-glutamine (2.0×10^−3 M), and 1.0% nonessential amino acids. MCF-7, BxPC-3 and CCRF-CEM cells were cultured in Roswell Park Memorial Institute (RPMI) medium supplemented with 10% FBS, and 1.0% antibiotic-antimycotic. C2BBe1 cells were grown in DMEM 1.5 g/L sodium bicarbonate, 1.0% antibiotic-antimycotic, L-glutamine (2.0×10^−3 M), and 1.0% nonessential amino acids, 10 mg/L human holo-transferrin, and 10% fetal bovine serum. The cell number and viability of the cells were determined by the trypan blue exclusion method and Alamar Blue assay, respectively.
(§2) The assay is designed to measure quantitatively the proliferation of cell by use of a fluorometric/colorimetric growth indicator based on detection of metabolic activity. Specifically, the alamar blue system incorporates an oxidation-reduction (REDOX) indicator that both fluoresces and changes color in response to chemical reduction of growth medium resulting from cell growth. As cells being tested grow, innate metabolic activity results in a chemical reduction of the system. Continued growth maintains a reduced environment while inhibition of growth maintains an oxidized environment. Reduction related to growth causes the REDOX indicator to change from oxidized (non-fluorescent, blue) form to reduced (fluorescent, red) form.
(§3) Cell viability was determined by Alamar Blue assay in accordance with the manufacturer's protocols.

[2] = tested on: cervical cancer cells Hela; test: Cancer cell growth, Alamar Blue assay, HeLa; type: cell-based; settings: 48 hr culture
Source text: as §1, §2, §3

[3] = tested on: colon cancer cells C2BBE1; test: Cancer cell growth, Alamar Blue assay, C2BBE1; type: cell-based; settings: C2BBE1, 48 hr culture
Source text: as §1, §2, §3

A375.S2 cells = test: Cancer cell growth, Alamar Blue assay, A375; type: cell-based; settings: A375, 48 hr culture
Source text: as §1, §2, §3

breast cancer cells MCF7 = test: Cancer cell growth, Alamar Blue assay, MCF7; type: cell-based; settings: MCF7, 48 hr culture
Source text: as §1, §2, §3

[4] = tested on: pancreatic cancer cells BxPC3; test: Cancer cell growth, Alamar Blue assay, BxPC3; type: cell-based; settings: BxPC3, 48 hr culture
Source text: as §1, §2, §3

lung cancer cells A549 = test: Cancer cell growth, Alamar Blue assay, A549; type: cell-based; settings: A549, 48 hr culture
Source text: as §1, §2, §3

[5] = free drug; cited from earlier work

Compound | Percentage of drugs remained un-degraded [1] [%] | IC50 (hepatoma cells Huh7; Homo sapiens, Huh-7) [µM] | IC50 ([2]; Homo sapiens) [µM] | IC50 ([3]; Homo sapiens) [µM] | IC50 (A375.S2 cells; A375-S2) [µM] | IC50 (breast cancer cells MCF7; Homo sapiens) [µM] | IC50 ([4]; Homo sapiens, BXPC-3) [µM] | IC50 (lung cancer cells A549; Homo sapiens) [µM] | IC50 (hepatoma cells Huh7) [µM] | IC50 [2] [µM] | IC50 [3] [µM] | IC50 (A375.S2 cells) [µM] | IC50 (breast cancer cells MCF7) [µM] | IC50 [4] [µM] | IC50 (lung cancer cells A549) [µM] | Solubility of the anti-cancer drug [5]
CC(C)C[C@H](NC(=O)[C@H](CCc1ccccc1)NC(=O)CN1CCOCC1)C(=O)N[C@@H](Cc1ccccc1)C(=O)N[C@@H](CC(C)C)C(=O)[C@@]1(C)CO1 [Carfilzomib] | 48.5 | 0.7 | 1.3 | 1.6 | 750 | 0.1 | 0.08 | 1.8 |  |  |  |  |  |  |  | 
N.N.[Cl][Pt][Cl] [Cisplatin] |  |  |  |  |  |  |  |  | 6.3 | 3.1 | 11 | 9.2 | 33 | 4.8 | 6.5 | 
CC(=O)O[C@@]12CO[C@@H]1C[C@H](O)[C@@]1(C)C(=O)[C@H](O)C3=C(C)[C@@H](OC(=O)[C@H](O)[C@@H](NC(=O)OC(C)(C)C)c4ccccc4)C[C@@](O)([C@@H](OC(=O)c4ccccc4)[C@H]21)C3(C)C [Docetaxel] | 83.6 | 0.01 | 0.67 | 100 | 29 | 6.3 | 4.7 | 1 |  |  |  |  |  |  |  | 0.27 mg/L
COc1cccc2c1C(=O)c1c(O)c3c(c(O)c1C2=O)C[C@@](O)(C(=O)CO)C[C@@H]3O[C@H]1C[C@H](N)[C@H](O)[C@H](C)O1 [Doxorubicin] | 69.5 | 0.49 | 1.7 | 13 | 0.75 | 2 | 0.58 | 0.04 |  |  |  |  |  |  |  | 2,600 mg/L
Nc1ccn([C@@H]2O[C@H](CO)[C@@H](O)C2(F)F)c(=O)n1 [Gemcitabine] | 58.8 | 1 | 94 | 170 | 66 | 48 | 51 | 17 |  |  |  |  |  |  |  | 51,000 mg/L
CC(=O)O[C@H]1C(=O)[C@@]2(C)[C@H]([C@H](OC(=O)c3ccccc3)[C@]3(O)C[C@H](OC(=O)[C@H](O)[C@@H](NC(=O)c4ccccc4)c4ccccc4)C(C)=C1C3(C)C)[C@]1(OC(C)=O)CO[C@@H]1C[C@@H]2O [Paclitaxel] |  |  |  |  |  |  |  |  |  |  |  |  |  |  |  | 5.6 mg/L
